Test results taken from paper PMC8878324, “Evaluation of New Antimicrobial Agents Based on tris(1H-Indol-3-yl)methylium Salts: Activity, Toxicity, Suppression of Experimental Sepsis in Mice” (Pharmaceuticals, 2022).
Converted amounts (≈) assume the structure as drawn.

Columns and labels:
Experiment in all cases: MIC by broth microdilution
Format in all cases: cell-based
[1] = system: Escherichia coli ATCC 25922; conditions: ATCC25922
Experimental: (§1) We have tested the antimicrobial activity in vitro of over 100 tris(indolyl)methane derivatives against 16 strains of Gram-positive, Gram-negative bacteria and fungi including either sensitive or drug-resistant strains from ATCC, as well as resistant clinical isolates from the culture collection of the Laboratory for Control of Hospital Infections (Sechenov University, Moscow, Russia). The minimum inhibitory concentrations (MICs) were determined by the microdilution method in a cation-adjusted Müller–Hinton medium for bacteria and in a liquid culture medium RPMI 1640 with L-glutamine without sodium bicarbonate for fungi in accordance with the requirements of the Institute of Clinical and Laboratory Standards (CLSI/NCCLS). […] As a rule, their activity against Gram-negative bacteria was usually not that high. […] For comparison, the antimicrobial activity of prototype 4 is shown. The antibacterial antibiotic levofloxacin and the antifungal amphotericin B were used as reference drugs (Table 1).
(§2) The synthesis of compounds and the scheme of their preparation and purification, as well as physicochemical characteristics, were described earlier. To evaluate the biological activity in vitro, the compounds were dissolved in DMSO at a concentration of 2.0–6.4 mg/mL, followed by preparation of two-fold dilutions in the same solvent, if necessary. The solutions were further diluted in an aqueous medium for the final concentration of DMSO not to exceed 1%, and the concentration of the compounds ranged from 64.0 to 0.13 μg/mL. To study compounds in vivo, solutions for intravenous administration in 5% glucose solution were prepared. Solutions were sterilized by filtration through 0.22 µm filters (Millipore, Burlington, MA, USA).
(§3) Strains of Gram-positive, Gram-negative bacteria and fungi including sensitive or drug-resistant strains from ATCC, as well as resistant clinical isolates from the culture collection of the Laboratory for Control of Hospital Infections (Sechenov University, Moscow, Russia), were used. Clinical isolates of Gram-positive bacteria Staphylococcus aureus 5 (MRSA), Staphylococcus aureus 10, Staphylococcus aureus 100KC (MRSA), Staphylococcus epidermidis 533, Staphylococcus haemoliticus 585 and Enterococcus faecium 569, as well as collection cultures of Gram-positive bacteria Staphylococcus aureus ATCC 700699, Staphylococcus aureus ATCC 25923, Staphylococcus aureus ATCC 3798 and collection cultures of Gram-negative bacteria Escherichia coli ATCC 25922, Klebsiella pneumoniae ATCC 13883, Proteus vulgaris ATCC 13315, Salmonella cholerasuis ATCC 14028, Pseudomonas aeruginosa ATCC 27853 and collection cultures of the yeast Candida albicans ATCC 14053 and the fungi Aspergillus niger ATCC 16404 were used. To grow the microorganisms, we used Trypticase Soy Agar (TSA, Sigma-Aldrich Co., Burlington, MA, USA). Trypticase Soy Agar, BBL, was used for cultivation of Staphylococcus spp. and E. coli. For cultivation of Enterococcus spp. and P. aeruginosa we used a ready-made dry medium Columbia Agar Base, BBL. The media were sterilized by autoclaving at 121 °C for 15 min. Yeast culture C. albicans was grown on Sabouraud agar (peptone—10 g, glucose—40 g, agar—20 g, distilled water—1 L, pH 6.0), and filamentous fungi A. niger was grown on potato–glucose agar (potatoes—200 g, glucose—20 g, agar—15 g, distilled water—1 L, pH 5.5–6.0).
(§4) To determine the antibacterial effect, a liquid Müller–Hinton medium (Becton, Dickinson and Company, Cockeysville, MD, USA) was used; to determine the effect of compounds on fungi we used RPMI 1640 medium with L-glutamine, without sodium bicarbonate, which was prepared from a dry medium (ICN Biomedicals Inc., Costa Mesa, CA, USA) by dilution in distilled water, subsequent buffering with 0.165 M of morpholinepropanesulfonic acid (MOPS, Acros Organics B.V.B.A., Morris Plains, NJ, USA) and adjusting the pH of the medium to 7.0 by adding 1 N of NaOH solution. […]

[2] = system: Staphylococcus aureus ATCC 3798; conditions: ATCC3798
Experimental: as §1, §2, §3, §4

[3] = system: Staphylococcus aureus 100KC; conditions: Staphylococcus aureus 100KC (MRSA)
Experimental: as §1, §2, §3, §4

[4] = system: Staphylococcus epidermidis 533
Experimental: as §1, §2, §3, §4

Staphylococcus aureus 10 = system: Staphylococcus aureus 10
Experimental: as §1, §2, §3, §4

[5] = system: Proteus vulgaris ATCC 13315; conditions: ATCC13315
Experimental: as §1, §2, §3, §4

[6] = system: Staphylococcus haemoliticus 585; conditions: for MIC: Staphylococcus haemoliticus 585
Experimental: as §1, §2, §3, §4

[7] = system: Klebsiella pneumoniae ATCC 13883; conditions: ATCC13883
Experimental: as §1, §2, §3, §4

[8] = system: Staphylococcus aureus ATCC 25923; conditions: ATCC25923
Experimental: as §1, §2, §3, §4

[9] = system: Salmonella cholerasuis ATCC 14028; conditions: ATCC14028
Experimental: as §1, §2, §3, §4

Enterococcus faecium 569 = conditions: for MIC: Enterococcus faecium 569; for activity against Enterococcus faecium 569: in words, strain resistant to cefuroxime, clindamycin, gentamycin, vancomycin and doxycycline
Experimental: as §1, §2, §3, §4

[10] = system: Staphylococcus aureus ATCC 700699; conditions: ATCC700699
Experimental: as §1, §2, §3, §4

[11] = system: Pseudomonas aeruginosa ATCC 27853; conditions: ATCC27853
Experimental: as §1, §2, §3, §4

Staphylococcus aureus 5 = Staphylococcus aureus 5 (MRSA)
Experimental: as §1, §2, §3, §4

Compound	MIC [1]	MIC [2]	MIC [3]	MIC [4]	MIC (Staphylococcus aureus 10)	MIC [5]	MIC [6]	MIC [7]	MIC [8]	MIC [9]	MIC (Enterococcus faecium 569)	activity against Enterococcus faecium 569 (Enterococcus faecium 569)	MIC [10]	MIC [11]	MIC (Staphylococcus aureus 5)	activity against Staphylococcus haemoliticus 585 ([6]; in words, clinical isolate resistant to penicillins, aminoglycosides and erythromycin)
OCCCCCn1cc([C+](c2cn(CCCCCO)c3ccccc23)c2cn(CCCCCO)c3ccccc23)c2ccccc21.[Cl-] [Compound 1, tris(1-(5-Hydroxypentyl)-1H-indol-3-yl) methylium chloride]	8 µg/mL	2 µg/mL	2 µg/mL	1 µg/mL	1 µg/mL	64 µg/mL	4 µg/mL	2 µg/mL	2 µg/mL	> 64 µg/mL	8 µg/mL	reduced activity	2 µg/mL	> 64 µg/mL	4 µg/mL	
CCCn1cc([C+](c2cn(CCC)c3ccccc23)c2cn(C3=C(N(C)C)C(=O)NC3=O)c3ccccc23)c2ccccc21 [Compound 3, 1-(4-Dimethylamino-2,5-dioxo-2,5-dihydro-1H-pyrrol-3-yl) -1H-indol-3-yl) bis(1-propyl-1H-indol-3-yl) methylium chloride]	16 µg/mL	0.13 µg/mL	0.13 µg/mL	0.5 µg/mL	0.25 µg/mL	> 64 µg/mL	> 64 µg/mL	> 64 µg/mL	0.13 µg/mL	> 64 µg/mL	> 64 µg/mL	inactive	0.13 µg/mL	16 µg/mL	0.5 µg/mL	not active
C[C@H]1COc2c(N3CCN(C)CC3)c(F)cc3c(=O)c(C(=O)O)cn1c23 [Levofloxacin, levofloxacin, reference compound]	0.06 µg/mL (≈ 0.166 µM)	32 µg/mL (≈ 88.6 µM)	32 µg/mL (≈ 88.6 µM)	0.5 µg/mL (≈ 1.38 µM)	0.13 µg/mL (≈ 0.36 µM)	4 µg/mL (≈ 11.1 µM)	0.5 µg/mL (≈ 1.38 µM)	0.25 µg/mL (≈ 0.692 µM)	0.25 µg/mL (≈ 0.692 µM)	0.13 µg/mL (≈ 0.36 µM)	1 µg/mL (≈ 2.77 µM)		16 µg/mL (≈ 44.3 µM)	1 µg/mL (≈ 2.77 µM)	0.25 µg/mL (≈ 0.692 µM)	
CCCn1cc([C+](c2cn(CCC)c3ccccc23)c2cn(C3=C(N)C(=O)NC3=O)c3ccccc23)c2ccccc21.[Cl-] [Compound 2, (1-(4-Amino-2,5-dioxo-2,5-dihydro-1H-pyrrol-3-yl)-1H-indol-3-yl)bis(1-propyl-1H-indol-3-yl) methylium chloride]	> 64 µg/mL	0.25 µg/mL	0.5 µg/mL	0.5 µg/mL	0.5 µg/mL	16 µg/mL	2 µg/mL	> 64 µg/mL	0.5 µg/mL	> 64 µg/mL	8 µg/mL		0.5 µg/mL	32 µg/mL	0.25 µg/mL	
